Data as given in patent EP0528661A2, “HIV protease inhibitors with N-terminal polyether substituents” (MERCK & CO. INC., priority 1991, dated 1993).

Target: T1, HIV protease (Human immunodeficiency virus type 1 group M subtype B, UniProt P12497)
T1 construct: the protease expressed in Eschericia coli; made in house; host or cells: Escherichia coli
Assay: Assay for inhibition of microbial expressed viral protease (peptide substrate cleavage, HPLC quantitation)
Type: biochemical
Conditions: protease expressed in Eschericia coli; peptide substrate Val-Ser-Gln-Asn-(betanapthyl)Ala-Pro-Ile-Val 0.5 mg/mL; 50 mM Na acetate, pH 5.5, 30°C, 1 hour; read-out: IC₅₀
Description: Assay for Inhibition of Microbial Expressed Viral Protease
Inhibition studies of the reaction of the protease expressed in Eschericia coli with a peptide substrate [Val-Ser-Gln-Asn-(betanapthyl)Ala-Pro-Ile-Val, 0.5 mg/mL at the time the reaction is initiated] were in 50 mM Na acetate, pH 5.5, at 30°C for 1 hour. Various concentrations of inhibitor in 1.0 ul DMAO were added to 25 ul of the peptide solution in water. The reaction is initiated by the addition of 15 ul of 0.33 nM protease (0.11 ng) in a solution of 0.133 M Na acetate pH 5.5 and 0.26% bovine serum albumin. The reaction was quenched with 160 ul of 5% phosphoric acid. Products of the reaction were separated by HPLC (VYDAC wide pore 5 cm C-18 reverse phase, acetonitrile gradient, 0.1% phosphoric acid). The extent of inhibition of the reaction was determined from the peak heights of the products.

IC50: ~5 nM
Compound: COCCOCCOCCOCCOC(=O)N[C@@H](Cc1ccccc1)[C@@H](O)C[C@@H](Cc1ccccc1)C(=O)N[C@H]1c2ccccc2C[C@H]1O [Compound A, N-(2(R)-hydroxy-1(S)-indanyl)-5(S)-(3,6,9,12-tetraoxatridecyloxycarbonylamino)-4(S)-hydroxy-2(R)-phenylmethyl-6-phenylhexanamide]
